From publication PMC10900488, “Synthesis and Evaluation of (Bis)benzyltetrahydroisoquinoline Alkaloids as Antiparasitic Agents” (JACS Au, 2024)
Read-outs that look alike come from different tables or passages of the source.

Key:
L. infantum amastigotes = assay: Antiamastigote assay (L. infantum), ex vivo intracellular model of mice macrophages, microscopy; type: cell-based, Leishmania (L.) infantum; settings: ± SD, intracellular, peritoneal macrophages, 96 h, read-out: L. infantum IC50 amastigotes
Protocol: (§1) Table 1 depicts the antileishmanial (L. infantum) activity evaluation performed against both the amastigote form (evaluated microscopically using an ex vivo intracellular model of mice macrophages) and the promastigote one (using an MTT colorimetric method).[32],[33] The cytotoxicity was evaluated against NCTC cells using an MTT colorimetric method and the selectivity index was determined using the ratio between the CC50 values (NCTC cells) and the IC50 values (amastigotes).[32] […] With respect to the substituents on the C ring, larger, hydrophobic groups conferred greater bioactivity (e.g., 9b–d), whereas small, hydrophilic groups such as a hydroxyl group afford modest to poor bioactivity.
(§2) Leishmania (L.) infantum (MHOM/BR/1972/LD) amastigotes were obtained from golden hamsters (Mesocricetus auratus) spleens following 60-70 days of infection via differential centrifugation. The Stauber method was used to determine the number of parasites.12 […]
(§3) Peritoneal macrophages were obtained via washing the peritoneal cavity of BALB/c mice with 10% foetal calf serum supplemented RPMI-1640 medium (pH 7.2). The macrophages were maintained in a humidified incubator at 37 °C and with 5% CO2.
(§4) Biological activity assays […]
Antiamastigote Assay (L. infantum)
Peritoneal macrophages (1 × 10^5/well) were added to a 16-well slide chambers (NUNC) and incubated with 5% CO2 at 37 °C. The cells were subsequently infected with L. infantum amastigotes (10:1 amastigotes/macrophage) for 24 h. Treatment of the cells with selected compounds (serially diluted 1.2 to 150 μM) was performed in a humidified incubator for 96 h at 37 °C and with 5% CO2. Untreated cells were used as a negative control and miltefosine was used as a standard drug. The treated cells were fixed on slides with methanol, stained with Giemsa and observed under a light microscope.13 The infection index was used in order to determine the half inhibitory concentration (IC50) (no. infected macrophages × no. amastigotes / total no. […]

T. cruzi trypomastigotes = assay: Antitrypomastigote assay (T. cruzi), resazurin; type: cell-based, Trypanosoma (T.) cruzi; settings: ± SD, resazurin, 24 h, read-out: T. cruzi IC50 trypomastigotes
Protocol: (§5) T. cruzi also assumes several cell morphologies during its lifecycle, which differ between the insect vector and mammalian host. In the latter environment, the parasite transitions between extracellular bloodstream trypomastigotes and intracellular amastigotes; both forms are clinically relevant, particularly during the acute stage of Chagas disease.[34] In this work, antitrypanosomal activity was tested against both the amastigote form (evaluated microscopically using an ex vivo intracellular model using mice macrophages) and the trypomastigote form (using the resazurin in vitro assay).[33],[35] […] In silico predictions of pharmacokinetic profiles were carried out using the SwissADME webtool (see the Supporting Information for details).[36] […]
(§6) […] Cultivation was performed in 2% fetal calf serum supplemented RPMI-1640 medium.
(§7) The trypomastigotes were maintained in a humidified incubator at 37 °C and with 5% CO2. […]
as §4
The half inhibitory concentration (IC50) was determined from a sigmoidal regression of the concentration-response curves generated in GraphPadPrism7. […]
Treatment of the cells with selected compounds (serially diluted 1.2 to 150 μM) was performed in a humidified incubator in RPMI 1640 medium for 24 h at 37 °C and with 5% CO2. Resazurin (0.011% in PBS) was added subsequently to verify parasite viability. Benznidazole was used as a standard drug. The optical density was determined at 570 nm using the FilterMax F5 (Molecular Devices). […]

[1] = test system: L. infantum promastigotes; assay: Antipromastigote assay (L. infantum), MTT colorimetric; type: cell-based, Leishmania (L.) infantum; settings: ± SD, MTT, 48 h, read-out: L. infantum IC50 promastigotes
Protocol: as §1, §2
Biological activity assays
Antipromastigote Assay (L. infantum)
L. infantum promastigotes (1 × 10^6 cells/well) were added to a 96-well plates. Treatment of the cells with selected compounds (serially diluted 0.14 to 200 μM) was performed in M199 medium supplemented with 0.25% hemin and 10% fetal bovine serum for 48 h at 24 °C. The MTT colorimetric assay was used to determine the activity (IC50) of the compounds. Miltefosine was used as a standard drug and untreated promastigotes were used as a negative control. The half inhibitory concentration (IC50) was determined from a sigmoidal regression of the concentration-response curves generated in GraphPadPrism7. […]

NCTC cells = assay: Mammalian toxicity, MTT colorimetric; type: cell-based, murine
Protocol: as §1, with “bioactivity. […]” for “bioactivity.”
(§8) Murine conjunctive fibroblasts NCTC clone 929 (ATCC) were maintained in 10% foetal calf serum supplemented RPMI-1640 medium (pH 7.2) at 37 °C in a humidified incubator with 5% CO2. […]
as §4
(§9) NCTC cells (6 × 10^4/well) were added to a 96-well plate. Treatments of the cells with selected compounds (serially diluted 1.5 to 200 μM) was performed in a humidified incubator for 96 h at 37 °C and with 5% CO2.
(§10) The MTT colorimetric method was used to determine the 50% cytotoxic concentration (CC50) and the selectivity index (CC50 against NCTC cells/IC50 against amastigotes).15 […]
(§11) […] At 6 h and 24 h post-treatment, a 1 mL aliquot was taken for imaging. The cell cycle experiment was preformed twice independently.
(§12) Generation of mNG::RAD51 tagged cell line
(§13) The single-stranded DNA-binding protein RAD51, associated with DNA Repair, LmxM.28.0550 was tagged with endogenous fluorescent protein mNeonGreen (mNG) at the N-terminus. […]
(§14) Primers for constructs and sgRNA were designed using LeishGEdit (http://www.leishGEdit.net).
(§15) PCR was at 94 °C for 5 min, followed by 35 cycles at 94 °C (15 sec), 65 °C (15 sec), 72 °C (2 min) then finally 72 °C (1 min).
(§16) PCR was at 94 °C for 30 sec, followed by 30 cycles at 94 °C (30 sec), 60 °C (30 sec), 72 °C (30 sec) then finally 72 °C (2 min). […] Combined PCR products were precipitated for 20 min with 10 μL 3M sodium acetate and 300 μL EtOH, pelleted at 14000 min-1 30 min, washed once with 70% EtOH, re-pelleted and resuspended in […]
(§17) Promastigotes (1 × 10^7 cells) were combined with PCR products and transfected using the Amaxa Nucleofector II.17 Electroporation was performed using 2 mm cuvettes on the X-100 program, followed by immediate suspension in pre-warmed M199 medium. Successful transfectants were selected with 20 μg mL-1 Puromycin 15 h after transfection, taking 4 days to reach stable growth in culture. mNG::RAD51 nuclear foci studies mNG::RAD51 promastigotes (5 × 10^6 cells mL-1) in 7 mL of M199 medium were treated with 7 μL o f compound (S)-9a or (S)-9b dissolved in DMSO giving a final concentration of 50 μM. Phleomycin was used as a positive control at a final concentration of 25 μg mL-1. At T = 0, 15, 30, 60 min, and 2, 6, 24 h post-treatment a 0.8 mL aliquot was taken for imaging.

T. cruzi amastigotes = assay: Antiamastigote assay (T. cruzi), ex vivo intracellular model using mice macrophages, microscopy; type: cell-based, Trypanosoma (T.) cruzi; settings: ± SD, 48 h, read-out: T. cruzi IC50 amastigotes
Protocol: as §5, §6, §7, §3, §4
Peritoneal macrophages (1 × 10^5 cells/well) obtained from the peritoneal cavity of BALB/C mice were added to 16-well chambers (NUNC, Thermo Fischer Scientific). The cells were infected with trypomastigotes (10:1 parasites/macrophage) for 2 h. Then treatment of the infected macrophages with selected compounds (serially diluted 1.2 to 100 μM) was performed in a humidified incubator for 48 h at 37 °C and with 5% CO2. The treated cells were fixed on slides using methanol, stained with Giemsa and observed under a light microscope (EVOS M5000, Thermo, USA) with digital image equipment. The infection index was used in order to determine the half inhibitory concentration (IC50) (no. infected macrophages × no. amastigotes / total no.

mNG::RAD51 promastigotes = assay: mNG::RAD51 nuclear foci studies; type: cell-based, Leishmania (L.) mexicana; settings: 25 μg mL-1, from 2 h posttreatment
Text: DSBs often lead to cytotoxicity, which could be an explanation for the observed compound activity.[44]−[46]Leishmania employ the RAD51 DNA recombinase protein as part of its DNA repair machinery to fix naturally occurring nuclear DSBs via homologous recombination.[47]−[50] Using a CRISPR/Cas9 gene editing strategy,[51] we generated a genetically modified cell line with mNeonGreen tagged RAD51. This would allow observation of fluorescent RAD51 protein recruitment to foci in the nucleus corresponding to DSB accumulation, as has been shown in T. brucei.[52],[53] Phleomycin was used as a positive control to induce DSBs,[54] which led to the expected observation of accumulation of RAD51 as green dots in the nucleus in 80% of cells from as early as 2 h posttreatment (Figure 2D). […] We can therefore conclude that the BI compounds tested are unlikely to act via DSBs (albeit this methodology is sensitive only to DSBs in nuclear DNA), and another mechanism of cell cycle disruption is responsible for the breakdown in the healthy cell cycle.
as §9, §10
[…] […] Statistical significance was derived from a two-tailed T-test.
The Graph Pad Prism 5 software was used to perform sigmoid dose-response curves for the determination of […]
as §11, §12, §13
Primers for constructs and sgRNA were designed using LeishGEdit (http://www.leishGEdit.net). […]

T. cruzi epimastigotes = test system: T. cruzi epimastigotes; parameters: method as in PMID 26625837, PMID 12203262, PMID 3253497, PMID 25629555, PMID 3075676; settings: reported antiparasitic activity; cited from earlier work
[2] = test system: L. donovani promastigotes; parameters: method as in PMID 26625837, PMID 12203262, PMID 3253497, PMID 25629555, PMID 3075676; settings: reported antiparasitic activity; cited from earlier work
[3] = Mammalian toxicity, MTT colorimetric; type: cell-based, murine; settings: mouse
Protocol: as §1, with “bioactivity. […]” for “bioactivity.”
as §8, §4, §9, §10, §11, §12, §13, §14, §15, §16, §17

[4] = Leishmania infantum, Peritoneal macrophage
[5] = Trypanosoma cruzi, Peritoneal macrophage

Row | IC50 (L. infantum amastigotes; [4]) [µM] | IC50 (T. cruzi trypomastigotes; Trypanosoma cruzi) [µM] | IC50 ([1]; Leishmania infantum) [µM] | IC50 (T. cruzi amastigotes; [5]) [µM] | Molecule | CC50 at 96 h [3] [µM] | also measured
1 | – | – | – | – | COc1ccc(COc2ccc(C[C@@H]3c4cc(OC)c(OC)cc4CCN3C)cc2)cc1 [(R)-10c] | – | IC50 (L. infantum amastigotes): 9.3 ± 0.4 µM; IC50 (T. cruzi trypomastigotes): 25.3 ± 2.1 µM; IC50 [1]: 2.4 ± 0.9 µM; CC50 (NCTC cells): 28.1 ± 5.5 µM; IC50 (T. cruzi amastigotes; peritoneal macrophages): > 100 µM
2 | – | – | – | – | Phleomycin [reference compound] | – | cells with accumulation of RAD51 in the nucleus (mNG::RAD51 promastigotes): 80%
3 | – | – | – | – | COc1ccc2cc1Oc1ccc(cc1)C[C@H]1c3c(cc(OC)c(O)c3Oc3cc4c(cc3OC)CCN[C@@H]4C2)CCN1C [compound 3, daphnandrine] | – | IC50 (T. cruzi epimastigotes): 43 µM
4 | – | – | – | – | COc1ccc(COc2ccc(C[C@H]3c4cc(OC)c(OC)cc4CCN3C)cc2)cc1 [(S)-10c] | – | IC50 (L. infantum amastigotes): > 150 µM; IC50 (T. cruzi trypomastigotes): 20.4 ± 11.4 µM; IC50 [1]: 4.8 ± 0.2 µM; CC50 (NCTC cells): 5.8 ± 0.5 µM; IC50 (T. cruzi amastigotes; peritoneal macrophages): > 100 µM
5 | – | – | – | – | COc1ccc2cc1Oc1ccc(cc1)C[C@H]1c3cc(OC)c(OC)c(c3CCN1C)Oc1c(O)c(OC)cc3c1[C@H](C2)NCC3 [compound 2, northalrugosidine] | – | IC50 [2]: 0.28 µM
6 | > 150 | 5.6 ± 2.1 | 1.1 ± 0.5 | > 100 | COc1ccc(COc2ccc(C[C@H]3c4cc(OC)c(OC)cc4CCN3C)cc2Oc2ccc(C[C@H]3c4cc(OC)c(OC)cc4CCN3C)cc2)cc1 [(S,S)-12] | 20.8 ± 5.4 | –
7 | > 150 | 6.5 ± 2.1 | 0.6 ± 0.1 | > 100 | COc1cc2c(cc1OC)[C@@H](Cc1ccc(OC)c(Oc3ccc(C[C@H]4c5cc(OC)c(OC)cc5CCN4C)cc3)c1)N(C)CC2 [(R,S)-11] | 7.3 ± 0.7 | –
8 | > 150 | 7.2 ± 0.6 | 0.7 ± 0.1 | 1.5 ± 0.2 | COc1cc2c(cc1OC)[C@@H](Cc1ccc(Oc3cc(C[C@@H]4c5cc(OC)c(OC)cc5CCN4C)ccc3OC)cc1)N(C)CC2 [(R,R)-11, (−)-O-methyldauricine] | 11.4 ± 4.8 | –
9 | < 10 | 16.5 ± 6.1 | 1.1 ± 0.5 | 6.2 ± 5.9 | COc1cc2c(cc1OC)[C@@H](Cc1ccc(OCc3ccccc3)cc1)N(C)CC2 [(R)-9d] | 28.1 ± 0.5 | IC50 (L. infantum amastigotes): 9.4 ± 0.5 µM

Row | Molecule | IC50 (L. infantum amastigotes; [4]) [µM] | IC50 (T. cruzi trypomastigotes; Trypanosoma cruzi) [µM] | IC50 ([1]; Leishmania infantum) [µM] | IC50 (T. cruzi amastigotes; [5]) [µM] | CC50 at 96 h [3] [µM] | also measured
10 | COc1cc2c(cc1OC)[C@@H](Cc1ccc(O)c(Oc3ccc(C[C@H]4c5cc(OC)c(OC)cc5CCN4C)cc3)c1)N(C)CC2 [(S,R)-13] | 3.6 ± 0.3 | 4.2 ± 4.8 | 5.7 ± 1.3 | 4.4 ± 0.4 | 15.6 ± 1.6 | –
11 | COc1cc2c(cc1OC)[C@@H](Cc1ccc(Oc3cc(C[C@H]4c5cc(OC)c(OC)cc5CCN4C)ccc3O)cc1)N(C)CC2 [(R,S)-13] | > 150 | 10.1 ± 3.9 | 3.2 ± 1.7 | 2.8 ± 0.6 | 13.3 ± 1.6 | –
